Results published in paper PMC4546402, “Structural Model of the Bilitranslocase Transmembrane Domain Supported by NMR and FRET Data” (PLoS ONE, 2015).
Each block holds one molecule with its values, some of them ahead of it. Residues, ends and D or L forms follow the SMILES beside them. No end group written: not given here.

Key:
bilitranslocase (BTL) = settings: ref [10]; cited from earlier work
TM3:TM3 = assay: FRET titration of Atto488/Atto594-labelled peptides in SDS micelles, TM3:TM3 pair; assay type: binding; settings: Atto488 donor/Atto594 acceptor, SDS micelle, TM3 with TM3, ratio of donor emission at 523 nm to acceptor emission at 627 nm, read-out: dissociation constant Kd
TM2:TM2 = assay: FRET titration of Atto488/Atto594-labelled peptides in SDS micelles, TM2:TM2 pair; assay type: binding; settings: Atto488 donor/Atto594 acceptor, SDS micelle, TM2 with TM2, ratio of donor emission at 523 nm to acceptor emission at 627 nm, read-out: dissociation constant Kd

Molecule: C=CC1=C(C)/C(=C/c2[nH]c(Cc3[nH]c(/C=C4\NC(=O)C(C)=C4C=C)c(C)c3CCC(=O)O)c(CCC(=O)O)c2C)NC1=O [bilirubin]
allosteric effect on BTL (bilitranslocase (BTL)): positive allosteric effectors, inducing the BTL into its high-affinity state
effect on conversion between the two metastable BTL conformers (bilitranslocase (BTL)): accelerated

Kd (TM3:TM3): 191 µM
Molecule: GSVQCAGLISLPIAIEFTYKKKK [TM3:TM3]

Kd (TM2:TM2): 71.9 µM
Molecule: CC[C@H](C)[C@H](NC(=O)[C@H](C)NC(=O)[C@H](CCCCN)NC(=O)[C@H](CS)NC(=O)[C@H](CC(C)C)NC(=O)CNC(=O)[C@H](CO)NC(=O)[C@@H](NC(=O)CNC(=O)[C@H](C)NC(=O)[C@H](CO)NC(=O)[C@H](Cc1ccccc1)NC(=O)[C@@H]1CCCN1C(=O)[C@H](CO)NC(=O)[C@H](CCC(N)=O)NC(=O)[C@H](CC(C)C)NC(=O)[C@@H](NC(=O)[C@H](C)NC(=O)[C@@H](NC(=O)[C@H](Cc1ccccc1)NC(=O)[C@H](CC(C)C)NC(=O)[C@H](CS)NC(=O)[C@H](Cc1ccccc1)NC(=O)[C@H](CO)NC(=O)[C@@H](N)CO)C(C)C)[C@@H](C)O)C(C)C)C(=O)N[C@@H](CC(C)C)C(=O)N[C@@H](CC(C)C)C(=O)N[C@@H](CCCCN)C(=O)N[C@@H](CCCCN)C(=O)N[C@@H](CCCCN)C(=O)N[C@@H](CCCCN)C(=O)O [TM2:TM2] (H-SSFCLFVATLQSPFSAGVSGLCKAILLKKKK-OH)

Molecule: O=C(O)c1cccnc1 [nicotinic acid]
allosteric effect on BTL (bilitranslocase (BTL)): positive allosteric effectors, inducing the BTL into its high-affinity state
